Reference: US7053178B2, “Synthetic peptides and kits for diagnosis of anti-phospholipid syndrome” (Yeda Research Development Co., LTD, priority 1998, dated 2006)
Where no end group is shown, it is not given here.

Key:
anti-β2GPI mAb ILA-3 = experiment: ELISA binding of ILA-3 mAb to phage-displayed hexapeptides; parameters: species or system human; scale not given here; details: ILA-3 mAb 5 μg/ml, 10^9 phage particles/well, O.D. at 405 nm
Description: (§1) (a) Epitope Library. The hexapeptide epitope library was kindly provided by George P. Smith (University of Missouri, Columbia, MO) and was constructed by use of the phage fd-derived vector fUSE5 as described (Scott and Smith, 1990). This library consists of 2×10^8 original phage clones each containing a hexapeptide fused to the minor coat protein PIII (Scott and Smith, 1990). (b) Anti-β2GPI mAbs. The human anti-β2GPI mAbs named ILA-1, ILA-3 and G-3 (IgM), were prepared by human-human hybridoma technique from PBL of an APS patient as described (George et al., 1998). Briefly, peripheral blood cells (PBL) were separated from whole blood by Ficoll-Hypaque gradient, the PBL were exposed to pokeweed mitogen for 5 days in order to enrich the B cell population and the lymphocytes were fused with the human lymphoblastoid cell line GM4672 in the presence of polyethyleneglycol (PEG 1500). After fusion, the cells were seeded into 96-well tissue culture plates with RPMI 1640, 10% FCS and hypoxanthine-aminopterin-thymidine (HAT) selection media. New clones were detected after 4–5 weeks, grown and screened for binding to β2GPI by ELISA. All clones were subjected 4 times to limiting dilution cloning procedures in regular medium. […] The hexapeptide epitope library of section (a) above was used as described (Scott and Smith, 1990). […]

anti-β2GPI mAb ILA-1 = experiment: ELISA binding of ILA-1 mAb to phage-displayed hexapeptides; parameters: species or system human; details: ILA-1 mAb 5 μg/ml, 10^9 phage particles/well, O.D. at 405 nm
Description: as §1

anti-β2GPI mAb G-3 = experiment: ELISA binding of G-3 mAb to phage-displayed hexapeptides; parameters: species or system human; scale not given here; details: G-3 mAb 5 μg/ml, 10^9 phage particles/well, O.D. at 405 nm
Description: (a) Epitope Library. The hexapeptide epitope library was kindly provided by George P. Smith (University of Missouri, Columbia, MO) and was constructed by use of the phage fd-derived vector fUSE5 as described (Scott and Smith, 1990). This library consists of 2×10^8 original phage clones each containing a hexapeptide fused to the minor coat protein PIII (Scott and Smith, 1990). (b) Anti-β2GPI mAbs. The human anti-β2GPI mAbs named ILA-1, ILA-3 and G-3 (IgM), were prepared by human-human hybridoma technique from PBL of an APS patient as described (George et al., 1998). Briefly, peripheral blood cells (PBL) were separated from whole blood by Ficoll-Hypaque gradient, the PBL were exposed to pokeweed mitogen for 5 days in order to enrich the B cell population and the lymphocytes were fused with the human lymphoblastoid cell line GM4672 in the presence of polyethyleneglycol (PEG 1500). After fusion, the cells were seeded into 96-well tissue culture plates with RPMI 1640, 10% FCS and hypoxanthine-aminopterin-thymidine (HAT) selection media. New clones were detected after 4–5 weeks, grown and screened for binding to β2GPI by ELISA. All clones were subjected 4 times to limiting dilution cloning procedures in regular medium. […] The hexapeptide epitope library of section (a) above was used as described (Scott and Smith, 1990). Briefly, a library sample containing 3.8×10^9 infectious phage particles was subjected to three rounds of selection (panning) and amplification. For each selection cycle a biotinylated mAb prepared as described in section (b) above (10 μg in the first panning and 1 μg for the others) was added in a total volume of 50 μl. The phages were preincubated with the biotinylated mAb overnight at 4° C., and the reaction mixtures were then layered in 1 ml PBS on streptavidin-coated 30-mm polystyrene petri dishes (Nunc, Kamstrup, Roskilde, Denmark) for 30 min at room temperature. Unbound phages were removed by extensive washings in PBS, and the remaining phages were eluted with 0.1M glycine-HCl, pH 2.2, and neutralized with Tris 1M. […]

KDKATF [K D K A T F]
Binding O.D. (anti-β2GPI mAb ILA-3): 1178 ± 101 O.D.

KTPRVT [K T P R V T]
Binding O.D. (anti-β2GPI mAb ILA-1): 1201 ± 142 O.D.

LKTPRV [L K T P R V]
Binding O.D. (anti-β2GPI mAb ILA-1): 975 ± 72 O.D.

TKLRVY [T K L R V Y]
Binding O.D. (anti-β2GPI mAb G-3): 954 ± 62 O.D.

TLLRVY [T L L R V Y]
Binding O.D. (anti-β2GPI mAb G-3): 869 ± 71 O.D.

TLRVYK [T L R V Y K]
Binding O.D. (anti-β2GPI mAb G-3): 791 ± 33 O.D.
